# Source: patent US9624167B2, “N-(4-hydroxy-4-methyl-cyclohexyl)-4-phenyl-benzenesulfonamides and N-(4-hydroxy-4-methyl-cyclohexyl)-4-(2-pyridyl)benzenesulfonamides and their therapeutic use” (PIMCO 2664 LIMITED, priority 2013, dated 2017)
# Where two headings read alike, the source gives them in different places.
# Tests used:
# [1] = Aqueous (FaSSIF) solubility; type: physicochemical; settings: fasted state simulated intestinal fluid (FaSSIF); for solubility: pH 6.8, two replicates, read-out: Solubility (2)
# Experimental: Solubility was measured by equilibration of the compound in fasted state simulated intestinal fluid (FaSSIF) and quantified by high-performance liquid chromatography (HPLC).
# Aqueous solubility was measured by equilibration of compounds with fasted state simulated intestinal fluid (FaSSIF) and quantified spectrophotometrically.
# FaSSIF was prepared as described below:
# Preparation of blank FaSSIF: 0.21 g of sodium hydroxide (NaOH) pellets, 1.97 g of dihydrogen sodium phosphate (NaH2PO4.2H2O) and 3.09 g of sodium chloride (NaCl) were dissolved in 400 mL of deionised water. […]
# Preparation of FaSSIF: 0.056 g of SIF Powder (containing sodium taurocholate and lecithin) (Phares AG) was dissolved in 25 mL of blank FaSSIF and stirred until the powder was completely dissolved. The solution was allowed to stand for 2 hours during which it became opalescent; it was used within 24 hours. The final solution composition was characterised as follows: • Sodium taurocholate: 3 mM • Lecithin: 0.75 mM • Osmolarity: 270±10 mOsmol • pH: 6.5
# The optical density was measured at the end of the incubation period for test compounds and a reference used to determine solubility. In brief, two samples were prepared for each determination: a reference sample consisting of a stock solution of test compound in DMSO diluted in system solution (a phosphate free, low absorption buffer) and propanol; and a test sample (prepared in triplicate) consisting of 0.5 mL FaSSIF spiked with test compound at 0.2 mM. Each sample was incubated at room temperature for 16 hours with constant shaking at 250 rpm. At the end of the incubation period, 0.3 mL of each sample was filtered through a pION filter plate (PION, Woburn Mass.), diluted 1:1 with propanol and scanned using UV spectrophotometry at λmax ([…]) using a Spectra Max Plus—Version 2.1000 (Molecular Devices, Sunnyvale, Calif.), with μSOL Explorer solubility determination software (pION, Woburn, Mass.).
# FaSSIF solubility was calculated using the following formula:
# [formula] wherein: • “OD” is the optical density; • “Cr” is the concentration of the reference (33.4 μM); and • “molecular weight” is for the test compound (e.g., 381.44 for ABD735).
# hERG ion channel = molecular target: T1, hERG ion channel (Homo sapiens, UniProt Q12809); experiment: hERG Ion Channel Assay (Q-patch, hERG-CHO cells); type: cell-based; settings: hERG tail current, hERG-CHO cells, Q-patch; read-out: IC50 (1)
# T1 construct: expressed in transfected cells; host or cells: Chinese Hamster Ovary cells (hERG-CHO), stably transfected
# Experimental: (§1) The activity of the compounds against the hERG ion channel was tested. The assay was conducted using the automated path-clamp, Q-patch method using stably transfected Chinese Hamster Ovary cells (hERG-CHO). hERG-CHO cells were cultured in F-12 Kaighn's Nutrient Mixture medium (Invitrogen)+10% FBS at 37° C. for 1-3 days. Cells were kept at 30° C. for 24 to 48 hours prior to patch clamping in order to increase the hERG current amplitude. Subsequently, the cells were harvested by trypsinisation, and kept in Serum Free Medium (SFM) in the Q-patch cell preparation state for up to 6 hours at room temperature before being washed and re-suspended in extracellular solution and applied to the patch clamp sites for data recording.
# (§2) Patch-clamp voltage protocol: After whole cell configuration was achieved, the cell was held at −80 mV. A 50 millisecond pulse to −40 mV was delivered to measure the leaking current, which was subtracted from the tail current on-line. Then the cell was depolarized to +20 mV for 2 seconds, followed by a one second pulse to −40 mV to reveal hERG tail current. This paradigm was delivered once every 5 seconds to monitor the current amplitude.
# (§3) Extracellular solution: 137 mM NaCl, 4 mM KCl, 1.8 mM CaCl2, 1 mM MgCl2, 10 mM D(+)-glucose, 10 mM HePES buffer (pH adjusted to 7.4 with NaOH).
# (§4) After the whole cell configuration was achieved, the extracellular solution (control) was applied first and the cell was stabilized for 2 minutes in extracellular solution. The test compound was then applied from low concentrations to high concentrations cumulatively. The cell was incubated with each test concentration for 5 minutes. During each incubation, the cell was repetitively stimulated using the voltage protocol described above, and the tail current amplitude was continuously monitored.
# (§5) • (1) Peak tail current >100 pA in control. • (2) Initial run-down <30% and the run-down stops before first application of the test compound. • (3) Leak currents <50% of the control peak tail currents at any time. • (4) rs<20 MΩ throughout the experiment.
# (§6) The degree of inhibition (%) was obtained by measuring the tail current amplitude, induced by a one second test pulse to −40 mV after a two second pulse to +20 mV, before and after incubation with the test compound. The difference in current was normalized to control and multiplied by 100 in order to obtain the percent inhibition.
# (§7) Concentration (log) response curves were fitted to a logistic equation (three parameters assuming complete block of the current at very high test compound concentrations) to generate estimates of the 50% inhibitory concentration (IC50). The concentration-response relationship of each compound was constructed from the percentage reductions of current amplitude by sequential concentrations.
# hERG = molecular target: T2, hERG (Homo sapiens, UniProt Q12809); experiment: hERG Ion Channel Assay (Q-patch, hERG-CHO cells); type: cell-based; settings: human, CHO cells stably transfected with hERG (hERG-CHO), pH 7.4, 30 μM, hERG tail current
# T2 construct: expressed in transfected cells; host or cells: Chinese Hamster Ovary cells (hERG-CHO), stably transfected
# Experimental: as §1, §2, §3, §4, §5, §6, §7
# J774 macrophages [2] = experiment: Resazurin Macrophage J774 Viability Assay; type: cell-based; settings: Mus musculus, 6 point concentration range 10 μM to 10 nM, n = 3 replicates, mean of 2 independent experiments, 72 hour incubation, read-out: IC50 (1)
# Experimental: Potency was assessed using a viability assay based on the survival of the J774 macrophage cell line. Macrophages are closely related to osteoclasts and have been used previously as a model system for osteoclast survival (see, e.g., Luckman et al., 1998, “Heterocycle-containing bisphosphonates cause apoptosis and inhibit bone resorption by preventing protein prenylation: evidence from structure-activity relationships in J774 macrophages,” J. Bone Miner. Res., Vol. 13, pp. 1668-1678). The model is indicative both of effects on bone protection in diseases such as osteoporosis, osteoarthritis and rheumatoid arthritis, and of effects on inflammation since, like osteoclasts, J774 macrophages are dependent for survival on continued NFκB activation.
# In vitro potency of test compounds was determined by incubation with J774 macrophages and subsequent determination of cell viability using resazurin.
# Resazurin is a redox dye commonly used as an indicator of viability in cultured cells (see, e.g., Anoopkumar-Dukie, 2005, British Journal of Radiology, Vol. 78, pp. 945-947). It is non-toxic to cells and stable in culture medium, allowing continuous measurement of cell proliferation in vitro as either a kinetic or endpoint assay. The assay is based on the ability of viable, metabolically-active cells to reduce resazurin (which is blue and non-fluorescent) to resorufin and dihydroresorufin (which are red and fluorescent) using electrons from reducing species, such as nicotinamide adenine dinucleotide (NADPH) and flavin adenine dinucleotide (FADH). This transformation, from oxidised form to reduced form, can be measured either colorimetrically or fluorometrically. Insults that impair cell viability and proliferation also affects the capacity of cells to reduce resazurin, and the rate of dye reduction is directly proportional to the number of viable cells present.
# For fluorescence measurements, 530-560 nm excitation and 590 nm emission wavelengths are typically used. For colorimetric measurements, absorbance at 570 nm (reduced form) and 600 nm (oxidised form) is typically measured. A simple calculation is performed to determine the relative quantities of the two species: a high ratio of resorufin (the reduced form) to resazurin (the oxidised form) is an indicator that cells are proliferating and viable. A low ratio indicates cells that are quiescent or non-viable.
# J774 cells were plated at 10^4 cells per well in 100 μL αMEM (α Modified Eagle Medium) in 96-well plates and allowed to adhere overnight. The following day, test compounds were prepared as 100 mM solutions in DMSO. These stock solutions were diluted in DMSO and then diluted 1000× in culture medium (αMEM) before being added directly to the wells so as to give the desired final compound concentration. After a 72 hour incubation at 37° C./5% CO2, resazurin (Alamar Blue, Biosource International) was added to each well (1:10 v/v, 10 μL). The plate was then incubated at 37° C. for 3 hours and fluorescence was measured at 590 nm, with a 25 nm bandwidth.
# The average results for each test compound were expressed as a percent (%) of the average control value reflecting cell viability. The average values across the concentrations tested were then plotted and the IC50 for was calculated by fitting the data to a 4-parameter IC50 equation using software from Grafit (Erithacus Software). Each experiment was repeated twice and the data are presented as the mean IC50 from both experiments.
# J774 macrophages [3] = experiment: Resazurin Macrophage J774 Viability Assay; type: cell-based; settings: Mus musculus, 12 point concentration range 10 μM to 0.5 nM, n = 4 replicates, mean of 3 independent experiments, 72 hour incubation, read-out: IC50 (2)
# [4] = tested on: IL-6 release from LPS-stimulated Thp1 macrophages; experiment: Thp1 Macrophage IL-6 Release Assay; type: cell-based; settings: Homo sapiens, THP-1, 1.7 × 10^5 cells/well, 96-well plates, 3 days, 9 point curve, IL6 measured 18 hours after LPS, read-out: IC50 (2)
# Source text: Anti-inflammatory effects were further characterised by assessing the production of interleukin-6 (IL-6) by human Thp-1 derived macrophages stimulated with a pro-inflammatory stimulus bacterial lipopolysaccharide (LPS). LPS acts with a cell-surface receptor, Toll-like receptor-4 to activate the NFκB and IRF signalling pathways to produce IL-6. The reduction of IL—in this stimulated assay is indicative of anti-inflammatory effects with utility in the treatment of conditions in which IL-6 production is aberrant.
# In vitro potency of test compounds in human cells was determined by incubation with Thp1 macrophages and subsequent stimulation with an inflammatory stimulus (bacterial lipopolysaccharide (LPS)) followed by measurement of cellular interleukin-6 (IL-6) release.
# Thp1 cells were plated at a concentration of 1×10^5 cells/well or 1.7×10^5 cells/well in 500 μL or 150 μL RPMI complete media containing 1% penicillin-streptomycin and 10% heat inactivated foetal bovine serum in 24-well plates or 96-well plates, respectively and allowed to adhere overnight. The following day, the cells were stimulated with phorbol myristic acid (PMA) at a final concentration of 100 nM (24-well plates) or 200 nM (96-well plates) to induce differentiation and maintained for up to 8 days with a medium change at 5 days if cells were cultured to 8 days. Test compounds were prepared as […] solutions in DMSO and then serially diluted in DMSO prior to dilution in culture medium.
# The diluted compounds were added to the cultures 1 hour prior to stimulation with 100 ng/mL LPS. Following a 16 or 18 hour incubation at 37° C./5% CO2, the cell culture medium was collected and assayed for human IL-6 levels using the human IL-6 duo-set ELISA kit (R&D Systems). The average results for each test compound (n=3) were expressed as a percent (%) of the average control value. The average values across the concentrations tested were then plotted and the IC50 for the inhibition of IL-6 was calculated by fitting the data to a 4-parameter IC50 equation using software from Grafit version 6.0.12 (Erithacus Software Ltd., by Dr Robin Leatherbarrow) or GraphPad Prism version 5.04 for Windows (GraphPad Software, La Jolla, Calif., USA, www.qraphpad.com). Each experiment was repeated twice and the data are presented as the mean IC50 from both experiments.
# [5] = Human Liver Microsomal Stability; type: in vitro ADME; settings: both sexes, pooled liver microsomes, pH 7.4, human liver microsomes 0.5 mg/mL protein, 1 μM compound, 6 time points 0-60 min, two replicates, read-out: T1/2 (2)
# Experimental: Metabolic stability was measured by determining the rate of disappearance of compound in the presence of human liver microsomal preparations, as quantified by liquid chromatography mass-spectrometry and […] mass-spectrometry (LC-MS/MS).
# Metabolic stability of test compounds was measured by determination of the rate of disappearance of the compound when incubated in the presence of human liver microsomes. Liver microsomes are prepared from the endoplasmic reticulum of hepatocytes and are the primary source of the most important enzymes (cytochrome P450s) involved in drug metabolism. Study of drug stability in the presence of liver microsomes is accepted as a valuable model permitting rapid prediction of in vivo drug stability.
# Human liver microsomes were obtained from a commercial source. Test compounds (1 μM) were incubated with pooled liver microsomes (male and female). Samples were incubated for a 60 minute period and removed at up to 6 time points and analysed by LC-MS/MS for the presence/amount of test compounds.
# Microsomes (final protein concentration 0.25 or 0.5 mg/mL), 0.1 M phosphate buffer pH 7.4, and test compound (final concentration 1 μM; diluted from 10 mM stock solution to give a final DMSO concentration of 0.1%) were incubated at 37° C. prior to the addition of Nicotinamide adenine dinucleotide phosphate (NADPH, final concentration 1 mM) to initiate the reaction. The final incubation volume was 100 μL. A control incubation was included for each compound tested, where 0.1 M phosphate buffer pH 7.4 was added instead of NADPH. […]
# Each compound was incubated for 0, 5, 15, 30, 45 or 60 minutes. The reactions were stopped by the addition of 100 μL ice-cold acetonitrile containing internal standard (0.001 mM glipizide) at the appropriate time points. The incubation plates were centrifuged at 4000 rpm for 15 minutes at 4° C. to precipitate the protein and 0.1 mL aliquots were analysed using LC-MS/MS, with the conditions shown in the following table.
# From a plot of the natural logarithm of the peak area ratio (i.e., the ratio of compound peak area:internal standard peak area) against time, the gradient of the line was determined.
# T2 sequence (Q12809 whole entry): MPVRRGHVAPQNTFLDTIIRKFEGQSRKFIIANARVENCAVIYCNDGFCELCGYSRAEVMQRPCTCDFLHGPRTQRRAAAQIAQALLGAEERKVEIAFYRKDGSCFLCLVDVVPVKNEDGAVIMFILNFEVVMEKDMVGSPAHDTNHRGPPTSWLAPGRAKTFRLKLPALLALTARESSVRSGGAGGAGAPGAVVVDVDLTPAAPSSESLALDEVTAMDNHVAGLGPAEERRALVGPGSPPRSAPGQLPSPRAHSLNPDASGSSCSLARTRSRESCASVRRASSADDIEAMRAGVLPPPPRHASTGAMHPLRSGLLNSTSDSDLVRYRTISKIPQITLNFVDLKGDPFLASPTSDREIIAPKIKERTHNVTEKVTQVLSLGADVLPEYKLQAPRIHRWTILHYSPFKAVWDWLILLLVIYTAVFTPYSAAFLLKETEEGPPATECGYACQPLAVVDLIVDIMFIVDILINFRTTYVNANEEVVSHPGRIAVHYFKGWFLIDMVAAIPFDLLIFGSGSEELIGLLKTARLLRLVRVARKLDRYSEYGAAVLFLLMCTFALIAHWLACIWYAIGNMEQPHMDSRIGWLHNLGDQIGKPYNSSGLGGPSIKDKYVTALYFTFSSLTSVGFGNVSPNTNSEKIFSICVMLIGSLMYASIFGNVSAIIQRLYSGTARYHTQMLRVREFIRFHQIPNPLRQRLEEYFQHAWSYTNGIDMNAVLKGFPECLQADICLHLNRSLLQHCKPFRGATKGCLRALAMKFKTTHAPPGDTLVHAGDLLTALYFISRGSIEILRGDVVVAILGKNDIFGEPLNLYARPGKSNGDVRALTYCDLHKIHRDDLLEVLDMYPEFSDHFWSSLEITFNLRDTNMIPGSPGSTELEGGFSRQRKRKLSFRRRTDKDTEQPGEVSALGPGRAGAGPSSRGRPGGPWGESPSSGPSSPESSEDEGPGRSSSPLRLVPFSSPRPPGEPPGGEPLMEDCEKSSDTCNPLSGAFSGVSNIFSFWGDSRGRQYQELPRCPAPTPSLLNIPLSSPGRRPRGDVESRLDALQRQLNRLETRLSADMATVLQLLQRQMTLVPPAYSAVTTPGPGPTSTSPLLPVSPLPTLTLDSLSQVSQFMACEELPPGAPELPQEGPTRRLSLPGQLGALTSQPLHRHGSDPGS
# T1 sequence (Q12809 whole entry): as above
SMILES,"solubility at 16 h ([1]; kinetic from dmso stock, pH 6.5, three replicates, 16 hours, read-out: Solubility (1))",IC50 (hERG ion channel),"inhibition at 5 min, 30 µM (hERG)",IC50 (J774 macrophages [2]),solubility [1],IC50 (J774 macrophages [3]),IC50 [4],half-life at 1 μM [5]
"O=S(=O)(N[C@H]1CC[C@H](O)CC1)c1ccc(-c2ccc(F)cc2F)cc1 [ABD599, reference compound]",30 µg/mL,4900 nM,85%,190 nM,,,,
"C[C@]1(O)CC[C@H](NS(=O)(=O)c2ccc(-c3ccc(F)cc3C#N)cc2)CC1 [HMC-C-05-A, 2′-Cyano-4′-fluoro-N-((1r,4r)-4-hydroxy-4-methylcyclohexyl)-[1,1′-biphenyl]-4-sulfonamide]",,,,,190 µg/mL,2460 nM,1020 nM,2.05 h
"C[C@]1(O)CC[C@H](NS(=O)(=O)c2ccc(-c3ccc(C#N)cc3F)cc2)CC1 [HMC-C-06-A, 4′-Cyano-2′-fluoro-N-((1r,4r)-4-hydroxy-4-methylcyclohexyl)-[1,1′-biphenyl]-4-sulfonamide]",,,,,110 µg/mL,710 nM,190 nM,4 h
C[C@]1(O)CC[C@@H](NS(=O)(=O)c2ccc(-c3ncc(Cl)cc3Cl)c(F)c2)CC1 [HMC-N-04-B],,,60%,,,,,
